Assay results published in publication PMC11803819, “Chemical composition, antioxidant activities, and enzyme inhibitory effects of Lespedeza bicolour Turcz. essential oil” (Journal of Enzyme Inhibition and Medicinal Chemistry, 2025).
≈ marks a conversion by molar mass, not a printed value.

Key:
[1] = system: acetylcholinesterase (AChE); details: previous studies; cited from earlier work
[2] = ABTS radical scavenging assay; details: positive control
Experimental: The experimental procedure is derived from the previous methods with some modifications[35]^,[36]. A mixture of 7.0 mM 2,2-azinobis(3-ethylbenzothiazoline-6-sulfonate) (ABTS) solution and 2.6 mM potassium persulfate was prepared to generate the ABTS^•+ free radical. The mixture was subsequently stored in the dark at room temperature for 12 h, facilitating the entire generation of the ABTS^•+ free radical. Additionally, ethanolic EO solutions were prepared at 50, 25, 10, 5, 2.5, and 1 mg/mL concentrations. A microplate reader (Epoch, Biotech company, Minneapolis, MN, USA) was utilised to ascertain the absorbance of the solution, delineated as the absorbance at 734 nm six minutes post-initiation of the reaction. For comparison, ethanol was used as the blank and gradient-diluted solvent. Meanwhile, 0.5 mg/mL 6‐hydroxy‐2,5,7,8‐tetramethylchroman‐2‐carboxylic acid (Trolox) was utilised as the positive control. The ABTS radical scavenging capacity (RSC%) was calculated using the Equation (1). (1) RSC%=A0−A/A0×100% where A0 and A are the absorbance of 200 μL diluted ABTS^•+ solution mixed with 50 μL ethanol and 50 μL sample solution, respectively, at 734 nm. IC50 was then calculated. All tests were performed in triplicates.

[3] = DPPH radical scavenging assay; details: positive control
Experimental: The experimental procedure was adapted from previous research with minor modifications. The concentrations of Trolox (positive control) and the mother solution of the essential oil EO were 1.0 mg/mL and 20 mg/mL, respectively, in an ethanolic system. 50 μL of the positive control or EO solution was pipetted into a 96‐well microplate and 200 μL of a 2,2-diphenyl-1-picrylhydrazyl (DPPH) solution. The microplate was incubated in the dark at 25 °C for 30 min, and then the absorbance was measured at 517 nm using an Epoch microplate absorbance spectrophotometer (Epoch, Biotech company, Minneapolis, MN, USA). The DPPH radical scavenging capacity (RSC%) was calculated using the Equation (2). […] (2) RSC%=(1−ASample−ASample Blank/AControl)×100% where, ASample is the absorbance of the tested sample at different concentrations, AControl is the absorbance of the control (ethanolic DPPH solution), and ASample Blank is the absorbance of the ethanol sample without DPPH.

β-lactamase = details: cited from earlier work

Sequence of acetylcholinesterase (AChE) (P22303 32-614, species assumed): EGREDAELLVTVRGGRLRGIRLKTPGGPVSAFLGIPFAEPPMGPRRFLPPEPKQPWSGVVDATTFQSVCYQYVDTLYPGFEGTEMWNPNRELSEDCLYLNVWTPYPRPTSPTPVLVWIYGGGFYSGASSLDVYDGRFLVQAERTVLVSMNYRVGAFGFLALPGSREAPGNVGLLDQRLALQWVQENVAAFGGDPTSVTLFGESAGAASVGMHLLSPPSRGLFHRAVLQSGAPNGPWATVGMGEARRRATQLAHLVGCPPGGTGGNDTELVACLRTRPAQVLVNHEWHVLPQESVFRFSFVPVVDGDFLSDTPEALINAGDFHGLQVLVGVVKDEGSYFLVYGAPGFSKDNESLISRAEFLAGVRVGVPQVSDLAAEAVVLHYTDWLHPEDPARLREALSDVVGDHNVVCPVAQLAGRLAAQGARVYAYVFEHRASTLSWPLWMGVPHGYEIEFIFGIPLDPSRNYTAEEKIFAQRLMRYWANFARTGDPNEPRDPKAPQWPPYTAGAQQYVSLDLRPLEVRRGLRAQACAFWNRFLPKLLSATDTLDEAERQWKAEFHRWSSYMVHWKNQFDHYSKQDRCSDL

Question: With C=C[C@](C)(O)CC[C@@H]1[C@@]2(C)CCCC(C)(C)[C@@H]2CC[C@@]1(C)O [Sclareol] as the compound, how does the “Inhibition against AChE” value [1] read?
Answer: Its value is “significant inhibition”.

Question: Which “IC50 of ABTS radical scavenging capacity” value [2] does the source give for Cc1c(C)c2c(c(C)c1O)CCC(C)(C(=O)O)O2 (stereo not shown) [Trolox, 6‐hydroxy‐2,5,7,8‐tetramethylchroman‐2‐carboxylic acid] here?
Answer: The value was 6.15 ± 0.15 mg/L.

Question: And the “IC50 of DPPH scavenging capacity” value [3]?
Answer: Its value is 9.94 ± 0.20 mg/L.

Question: Which IC50 (β-lactamase) does the source give for COC(=O)C=Cc1ccccc1 [methyl cinnamate] here?
Answer: The IC50 was 11.6 mg/L (≈ 71.5 µM).
